# Key:
# [1] = system: barnyardgrass; experiment: Test A pre-/postemergence herbicide test; format: in vivo, Echinochloa crus-galli
# In short: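 Greenhouse pot test with pre- and postemergence application of surfactant-containing solvent formulations. Postemergence plants were 2–10 cm, one- to two-leaf stage. Response scored visually after ~10 days, 0 (no effect) to 100 (complete control).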
# [2] = system: barnyardgrass; experiment: Test B flooded paddy test; format: in vivo, Echinochloa crus-galli; conditions: 500 g ai/ha, Flood; scale of 0 to 100 where 0 is no effect and 100 is complete control
# In short: (§1)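 First, plants reach the 2-leaf stage; next, pots are flooded to 3 cm and compound is delivered into the water; finally, after 13 to 15 greenhouse days at constant depth, injury is graded visually from 0 to 100 against controls.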
# [3] = system: foxtail, giant; experiment: Test C pre-/postemergence herbicide test; format: in vivo, Setaria faberii
# In short: (§2)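 Greenhouse pots; formulation = non-phytotoxic solvent mix + surfactant. PRE onto seeds in loam:sand; POST at 1–4 leaves (2–18 cm) in peat moss/vermiculite medium. Read-out: visual % control vs untreated, day 13–15.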
# [4] = system: lambsquarters; experiment: Test C pre-/postemergence herbicide test; format: in vivo, Chenopodium album
# In short: as §2
# [5] = system: rice; experiment: Test B flooded paddy test; format: in vivo, Oryza sativa; conditions: 500 g ai/ha, Flood; scale of 0 to 100 where 0 is no effect and 100 is complete control
# In short: as §1
# [6] = system: corn; experiment: Test C pre-/postemergence herbicide test; format: in vivo, Zea mays
# In short: as §2
# [7] = system: pigweed; experiment: Test C pre-/postemergence herbicide test; format: in vivo, Amaranthus retroflexus
# In short: as §2
# [8] = system: crabgrass, large; experiment: Test C pre-/postemergence herbicide test; format: in vivo, Digitaria sanguinalis
# In short: as §2
# [9] = system: blackgrass; experiment: Test C pre-/postemergence herbicide test; format: in vivo, Alopecurus myosuroides
# In short: as §2
# [10] = system: galium; experiment: Test C pre-/postemergence herbicide test; format: in vivo, Galium aparine; conditions: Preemergence; for Plant response rating, Galium: 125 g ai/ha; for Plant response rating (scale of 0 to 100), Galium: 250 g ai/ha
# In short: as §2
# [11] = system: velvetleaf; experiment: Test C pre-/postemergence herbicide test; format: in vivo, Abutilon theophrasti
# In short: as §2
# [12] = Postemergence, 500 g ai/ha, 0 to 100 scale (0 no effect, 100 complete control)
# [13] = Preemergence, 125 g ai/ha, 0 to 100 scale where 0 is no effect and 100 is complete control
# [14] = Postemergence, 31 g ai/ha, scale 0 to 100 (0 no effect, 100 complete control)
# [15] = Postemergence, 62 g ai/ha, scale 0 (no effect) to 100 (complete control)
# [16] = Postemergence, 125 g ai/ha, scale 0 to 100 (0 no effect, 100 complete control)
# [17] = Postemergence, 250 g ai/ha, scale 0 to 100 (0 no effect, 100 complete control)
# [18] = Preemergence, 31 g ai/ha, scale 0 to 100, 0 is no effect and 100 is complete control
# [19] = Preemergence, 62 g ai/ha, scale 0 to 100 (0 no effect, 100 complete control)
# [20] = Preemergence, 125 g ai/ha, scale 0 to 100
# [21] = 31 g ai/ha, scale 0 to 100, 0 is no effect and 100 is complete control
# [22] = 62 g ai/ha, scale 0 to 100 (0 no effect, 100 complete control)
# [23] = Preemergence, 125 g ai/ha, scale 0 to 100 (0 no effect, 100 complete control)
smiles,measurement,setting,value
O=C1NCC(c2cccc(OC(F)F)c2)C1C(=O)Nc1ccccc1F (centres unmarked) [Compound 323],"Plant response rating, Barnyardgrass","[1]; Postemergence, 125 g ai/ha, visual rating on 0 to 100 scale (0 no effect, 100 complete control), approx. 10 days",90
same,"Plant response rating, Barnyardgrass",[1]; [12],90
same,"Plant response rating, Barnyardgrass",[1]; [13],90
same,Barnyardgrass plant response rating,"[1]; Preemergence, 500 g ai/ha, visual rating on 0 to 100 scale (0 no effect, 100 complete control)",90
same,"Plant response rating, Barnyardgrass",[2],80
same,"Plant response rating, Foxtail, Giant",[3]; [14],0
same,"Plant response rating, Foxtail, Giant",[3]; [15],0
same,"Plant response rating, Foxtail, Giant",[3]; [16],35
same,"Plant response rating, Foxtail, Giant",[3]; [17],70
same,"Foxtail, Giant plant response rating",[3]; [18],90
same,"Foxtail, Giant plant response rating",[3]; [19],95
same,"Plant response rating, Foxtail, Giant",[3]; [20],95
same,"Plant response rating (scale of 0 to 100), Foxtail, Giant","[3]; Preemergence, 250 g ai/ha",98
same,"Plant response rating, Lambsquarters",[4]; [14],10
same,"Plant response rating, Lambsquarters",[4]; [15],10
same,"Plant response rating, Lambsquarters",[4]; [16],65
same,"Plant response rating, Lambsquarters",[4]; [17],65
same,Lambsquarters plant response rating,[4]; [18],40
same,Lambsquarters plant response rating,[4]; [19],50
same,"Plant response rating, Lambsquarters",[4]; [20],75
same,"Plant response rating (scale of 0 to 100), Lambsquarters","[4]; Preemergence, 250 g ai/ha",95
same,"Plant response rating, Rice",[5],20
same,"Plant response rating, Corn",[6]; [14],0
same,"Plant response rating, Corn",[6]; [15],0
same,"Plant response rating, Corn",[6]; [16],5
same,"Plant response rating, Corn",[6]; [17],10
same,Corn plant response rating,[6]; [18],0
same,Corn plant response rating,[6]; [19],0
same,"Plant response rating, Corn",[6]; [20],10
same,"Plant response rating (scale of 0 to 100), Corn","[6]; Preemergence, 250 g ai/ha",75
same,"Plant response rating, Pigweed",[7]; [14],0
same,"Plant response rating, Pigweed",[7]; [15],5
same,"Plant response rating, Pigweed",[7]; [16],25
same,"Plant response rating, Pigweed",[7]; [17],25
same,Pigweed plant response rating,[7]; [18],35
same,Pigweed plant response rating,[7]; [19],35
same,"Plant response rating, Pigweed",[7]; [20],55
same,"Plant response rating, Crabgrass, Large",[8]; [14],0
same,"Plant response rating, Crabgrass, Large",[8]; [15],40
same,"Plant response rating, Crabgrass, Large",[8]; [16],70
same,"Plant response rating, Crabgrass, Large",[8]; [17],80
same,"Crabgrass, Large plant response rating",[8]; [18],95
same,"Crabgrass, Large plant response rating",[8]; [19],98
same,"Plant response rating, Crabgrass, Large",[8]; [20],98
same,"Plant response rating (scale of 0 to 100), Crabgrass, Large","[8]; Preemergence, 250 g ai/ha",100
same,"Plant response rating, Blackgrass",[9]; [14],0
same,"Plant response rating, Blackgrass",[9]; [15],0
same,"Plant response rating, Blackgrass",[9]; [16],0
same,"Plant response rating, Blackgrass",[9]; [17],15
same,Blackgrass plant response rating,[9]; [18],0
same,Blackgrass plant response rating,[9]; [19],0
same,"Plant response rating, Blackgrass",[9]; [20],45
same,"Plant response rating (scale of 0 to 100), Blackgrass","[9]; Preemergence, 250 g ai/ha",85
same,Galium plant response rating,[10]; [21],0
same,Galium plant response rating,[10]; [22],0
same,"Plant response rating, Galium",[10]; scale 0 to 100,85
same,"Plant response rating (scale of 0 to 100), Galium",[10],85
same,"Plant response rating, Velvetleaf",[11]; [14],0
same,"Plant response rating, Velvetleaf",[11]; [15],20
same,"Plant response rating, Velvetleaf",[11]; [16],0
same,"Plant response rating, Velvetleaf",[11]; [17],0
same,Velvetleaf plant response rating,[11]; [19],15
same,"Plant response rating, Velvetleaf",[11]; [20],40
O=C1NCC(c2cc(F)cc(F)c2)C1C(=O)Nc1ccccc1Cl (racemic) [Compound 280],"Plant response rating, Barnyardgrass","[1]; Postemergence, 125 g ai/ha, 0 to 100 scale, 0 is no effect, 100 is complete control",80
same,"Plant response rating, Barnyardgrass",[1]; [12],90
same,"Plant response rating, Barnyardgrass",[1]; [13],80
same,"Plant response rating, Barnyardgrass","[1]; preemergence, 500 g ai/ha, 0 to 100 scale, 0 is no effect and 100 is complete control",80
same,"Plant response rating, Barnyardgrass",[2],65
same,"Foxtail, Giant plant response rating",[3]; [18],70
same,"Foxtail, Giant plant response rating",[3]; [19],80
same,"Plant response rating, Foxtail, Giant",[3]; [23],90
same,"Plant response rating (scale of 0 to 100), Foxtail, Giant","[3]; Preemergence, 250 g ai/ha",95
same,Lambsquarters plant response rating,[4]; [18],0
same,Lambsquarters plant response rating,[4]; [19],0
same,"Plant response rating, Lambsquarters",[4]; [23],10
same,"Plant response rating (scale of 0 to 100), Lambsquarters","[4]; Preemergence, 250 g ai/ha",10
same,"Plant response rating, Rice",[5],0
same,Corn plant response rating,[6]; [18],0
same,Corn plant response rating,[6]; [19],0
same,"Plant response rating, Corn",[6]; [23],0
same,"Plant response rating (scale of 0 to 100), Corn","[6]; Preemergence, 250 g ai/ha",5
same,Pigweed plant response rating,[7]; [18],10
same,Pigweed plant response rating,[7]; [19],0
same,"Plant response rating, Pigweed",[7]; [23],20
same,"Plant response rating (scale of 0 to 100), Pigweed","[7]; Preemergence, 250 g ai/ha",20
same,"Crabgrass, Large plant response rating",[8]; [18],85
same,"Crabgrass, Large plant response rating",[8]; [19],90
same,"Plant response rating, Crabgrass, Large",[8]; [23],95
same,"Plant response rating (scale of 0 to 100), Crabgrass, Large","[8]; Preemergence, 250 g ai/ha",100
same,Blackgrass plant response rating,[9]; [18],0
same,Blackgrass plant response rating,[9]; [19],0
same,"Plant response rating, Blackgrass",[9]; [23],0
same,"Plant response rating (scale of 0 to 100), Blackgrass","[9]; Preemergence, 250 g ai/ha",0
same,Galium plant response rating,[10]; [21],0
same,Galium plant response rating,[10]; [22],0
same,"Plant response rating, Galium","[10]; scale 0 to 100 (0 no effect, 100 complete control)",0
same,"Plant response rating (scale of 0 to 100), Galium",[10],85
same,Velvetleaf plant response rating,[11]; [18],0
same,Velvetleaf plant response rating,[11]; [19],0
same,"Plant response rating, Velvetleaf",[11]; [23],0
same,"Plant response rating (scale of 0 to 100), Velvetleaf","[11]; Preemergence, 250 g ai/ha",10
